The text below walks through data of patent US20250122183A1 (Pfizer Inc., priority 2023, published 2025).

Format in all cases: biochemical
Common to all, as to conditions: replicate number in parentheses

One experiment has as its target KAT6A Full length enzyme (Homo sapiens (Human), UniProt Q92794). Description: KAT6A assay (SAMDI-MS acetylation of H3 1-21 peptide).
The target in the next experiment is KAT8 Full length enzyme (Homo sapiens (Human), UniProt Q9H7Z6). The experiment is described as follows: KAT8 assay (SAMDI-MS acetylation of H3 1-21 peptide).
The target in experiment [1] is KAT7+JADE1+EAF6+ING5 4 protein complex (Homo sapiens (Human), UniProt O95251). Description: KAT7 JADE1 assay (SAMDI-MS acetylation of H3 1-21 peptide).
The mark [2] stands for this setting: Morrison equation fit, read-out: KAT6A Ki (nM) (replicate number).
The mark [3] stands for this setting: Morrison equation fit, read-out: KAT8 Ki (nM) (replicate number).
[4] abbreviates: Morrison equation fit, read-out: KAT7 JADE1 Ki (nM) (replicate number).
Setting [5] is: read-out: KAT6A Ki (nM) (replicate).
[6] abbreviates: read-out: KAT8 Ki (nM) (replicate).
The mark [7] stands for this setting: read-out: KAT7 JADE1 Ki (nM) (replicate).

What is called Ki is the equilibrium dissociation constant of an inhibitor or competing ligand from its target.

Where two headings read alike, the source gives them in different places.

KAT8 Full length enzyme, sequence (Q9H7Z6 whole entry): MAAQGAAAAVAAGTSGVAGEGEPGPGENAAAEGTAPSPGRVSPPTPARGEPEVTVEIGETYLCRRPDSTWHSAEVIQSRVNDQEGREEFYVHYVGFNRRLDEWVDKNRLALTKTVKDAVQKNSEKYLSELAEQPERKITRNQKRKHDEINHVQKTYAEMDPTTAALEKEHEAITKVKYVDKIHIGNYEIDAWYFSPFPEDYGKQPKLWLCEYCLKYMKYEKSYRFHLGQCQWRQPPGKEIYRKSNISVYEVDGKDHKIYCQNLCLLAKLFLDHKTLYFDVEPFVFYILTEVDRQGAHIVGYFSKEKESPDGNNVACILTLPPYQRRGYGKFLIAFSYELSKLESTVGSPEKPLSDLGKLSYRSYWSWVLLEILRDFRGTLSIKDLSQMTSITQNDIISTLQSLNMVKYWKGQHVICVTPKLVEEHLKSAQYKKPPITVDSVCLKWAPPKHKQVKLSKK
KAT6A Full length enzyme, sequence (Q92794 other isoform, or with tags, fused parts or gaps): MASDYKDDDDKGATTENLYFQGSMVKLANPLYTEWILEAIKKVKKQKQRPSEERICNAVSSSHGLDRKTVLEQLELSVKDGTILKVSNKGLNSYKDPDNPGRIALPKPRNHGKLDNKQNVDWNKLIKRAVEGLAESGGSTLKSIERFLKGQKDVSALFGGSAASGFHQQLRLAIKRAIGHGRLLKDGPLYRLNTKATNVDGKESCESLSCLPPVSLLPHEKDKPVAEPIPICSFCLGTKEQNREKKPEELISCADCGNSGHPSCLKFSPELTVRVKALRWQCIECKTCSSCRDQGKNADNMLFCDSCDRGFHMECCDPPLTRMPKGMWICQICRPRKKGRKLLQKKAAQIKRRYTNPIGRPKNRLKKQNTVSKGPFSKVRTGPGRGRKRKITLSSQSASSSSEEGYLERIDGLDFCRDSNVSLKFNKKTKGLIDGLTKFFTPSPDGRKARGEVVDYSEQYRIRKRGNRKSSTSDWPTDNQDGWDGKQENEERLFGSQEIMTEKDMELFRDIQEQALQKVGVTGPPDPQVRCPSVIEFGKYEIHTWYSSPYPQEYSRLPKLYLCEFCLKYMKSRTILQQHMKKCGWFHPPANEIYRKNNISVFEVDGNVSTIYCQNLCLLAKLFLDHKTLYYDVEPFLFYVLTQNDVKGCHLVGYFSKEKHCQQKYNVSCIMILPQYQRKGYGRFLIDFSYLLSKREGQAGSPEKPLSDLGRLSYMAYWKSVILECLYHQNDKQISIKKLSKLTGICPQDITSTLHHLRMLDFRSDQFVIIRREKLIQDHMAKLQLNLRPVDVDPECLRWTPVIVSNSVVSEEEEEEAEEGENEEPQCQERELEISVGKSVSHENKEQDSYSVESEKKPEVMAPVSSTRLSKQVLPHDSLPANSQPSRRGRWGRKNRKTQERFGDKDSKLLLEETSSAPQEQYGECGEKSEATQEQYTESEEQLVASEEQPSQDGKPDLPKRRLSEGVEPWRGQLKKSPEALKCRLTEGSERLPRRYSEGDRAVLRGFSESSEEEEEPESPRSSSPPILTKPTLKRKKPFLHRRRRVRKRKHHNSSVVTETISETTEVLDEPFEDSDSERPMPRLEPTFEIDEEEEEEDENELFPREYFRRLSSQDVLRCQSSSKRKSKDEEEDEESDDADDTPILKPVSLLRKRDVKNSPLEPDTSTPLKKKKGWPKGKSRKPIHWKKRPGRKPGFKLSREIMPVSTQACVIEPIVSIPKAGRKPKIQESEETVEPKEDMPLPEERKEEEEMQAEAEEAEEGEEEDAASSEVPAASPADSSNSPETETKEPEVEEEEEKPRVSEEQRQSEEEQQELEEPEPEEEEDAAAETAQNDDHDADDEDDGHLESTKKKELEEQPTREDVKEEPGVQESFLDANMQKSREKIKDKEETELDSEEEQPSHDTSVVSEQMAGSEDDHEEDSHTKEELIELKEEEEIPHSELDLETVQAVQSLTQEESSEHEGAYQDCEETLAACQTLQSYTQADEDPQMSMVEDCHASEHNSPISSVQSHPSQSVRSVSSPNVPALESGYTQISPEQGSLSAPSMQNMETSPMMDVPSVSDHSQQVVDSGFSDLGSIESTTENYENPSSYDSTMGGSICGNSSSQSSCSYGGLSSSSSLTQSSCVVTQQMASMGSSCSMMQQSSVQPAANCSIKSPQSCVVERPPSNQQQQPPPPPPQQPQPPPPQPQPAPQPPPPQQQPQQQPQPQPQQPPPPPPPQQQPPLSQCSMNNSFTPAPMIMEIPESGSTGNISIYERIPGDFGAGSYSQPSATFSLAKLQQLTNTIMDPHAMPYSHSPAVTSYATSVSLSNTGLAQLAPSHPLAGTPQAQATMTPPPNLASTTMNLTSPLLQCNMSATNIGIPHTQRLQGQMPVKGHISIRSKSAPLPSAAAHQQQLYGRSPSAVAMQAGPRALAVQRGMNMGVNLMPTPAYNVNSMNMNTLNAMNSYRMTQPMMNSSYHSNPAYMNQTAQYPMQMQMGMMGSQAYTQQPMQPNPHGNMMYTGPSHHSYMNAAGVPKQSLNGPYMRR

`COc1cc2c(NS(=O)(=O)c3c(OC)cc(C4CCCN(C)C4)cc3OC)noc2cc1Nc1cc(C2CC2)n[nH]1` (single isomer, unassigned) [Example 149, N-{6-[(3-cyclopropyl-1H-pyrazol-5-yl)amino]-5-methoxy-1,2-benzoxazol-3-yl}-2,6-dimethoxy-4-(1-methylpiperidin-3-yl)benzene-1-sulfonamide]: the inhibition constant Ki at KAT6A Full length enzyme (setting [2]) came out at 0.6 nM; at KAT8 Full length enzyme (setting [3]), 19000 nM; in experiment [1] (setting [4]), 5.3 nM.
`COc1cc2c(NS(=O)(=O)c3c(OC)cc(C4CCCN(C)C4)cc3OC)noc2cc1Nc1cc(C2CC2)n[nH]1` (single isomer, unassigned) [Example 150, N-{6-[(3-cyclopropyl-1 H-pyrazol-5-yl)amino]-5-methoxy-1,2-benzoxazol-3-yl}-2,6-dimethoxy-4-(1-methylpiperidin-3-yl)benzene-1-sulfonamide]: the Ki at KAT6A Full length enzyme (setting [2]) was 0.8 nM; at KAT8 Full length enzyme (setting [3]), 10300 nM; in experiment [1] (setting [4]) it was 6.3 nM.
In the case of `COc1cc2c(NS(=O)(=O)c3c(OC)cc(C(C)OC)cc3OC)noc2cc1Nc1cc(C2CC2)[nH]n1` (single isomer, unassigned) [Example 272, N-{6-[(5-cyclopropyl-1H-pyrazol-3-yl)amino]-5-methoxy-1,2-benzoxazol-3-yl}-2,6-dimethoxy-4-(1-methoxyethyl)benzene-1-sulfonamide], the inhibition constant (Ki) on KAT6A Full length enzyme (setting [5]) is 0.7 nM; on KAT8 Full length enzyme (setting [6]) it was 2650 nM; in experiment [1] (setting [7]) it was 5 nM.
The like results for `COc1cc2c(NS(=O)(=O)c3c(OC)cc(C(C)OC)cc3OC)noc2cc1Nc1cc(C2CC2)[nH]n1` (single isomer, unassigned) [Example 273, N-{6-[(5-cyclopropyl-1H-pyrazol-3-yl)amino]-5-methoxy-1,2-benzoxazol-3-yl}-2,6-dimethoxy-4-(1-methoxyethyl)benzene-1-sulfonamide] were, in that order, 0.6 nM, 2020 nM and 4.7 nM.
Consider `COc1cc2c(NS(=O)(=O)c3c(OC)cc(CN(C)C)cc3OC)noc2cc1Nc1cc(C2CC2)n[nH]1` [Example 144, N-{6-[(3-cyclopropyl-1 H-pyrazol-5-yl)amino]-5-methoxy-1,2-benzoxazol-3-yl}-4-[(dimethylamino)methyl]-2,6-dimethoxybenzene-1-sulfonamide], for which the Ki amounted to 1.8 nM at KAT6A Full length enzyme (setting [2]), 2780 nM on KAT8 Full length enzyme (setting [3]) and 10.2 nM in experiment [1] (setting [4]).
Turning to `COc1cc2c(NS(=O)(=O)c3c(OC)cc([C@@H]4COCCO4)cc3OC)noc2cc1Nc1cc(C2CC2)n[nH]1` [Example 145], the Ki is 1.8 nM on KAT6A Full length enzyme (setting [2]), 1510 nM at KAT8 Full length enzyme (setting [3]) and 9.2 nM in experiment [1] (setting [4]).
For `COc1cc2c(NS(=O)(=O)c3c(OC)cc(-c4ncc(C#N)cn4)cc3OC)noc2cc1Nc1cc(C2CC2)n[nH]1` [Example 224, 4-(5-cyanopyrimidine-2-yl)-N-{6-[(3-cyclopropyl-1 H-pyrazol-5-yl)amino]-5-methoxy-1,2-benzoxazol-3-yl}-2,6-dimethoxybenzene-1-sulfonamide], the Ki at KAT6A Full length enzyme (setting [2]) was determined as 1.5 nM; in experiment [1] (setting [4]) it was 7.2 nM.
With `COc1cc2c(NS(=O)(=O)c3c(OC)cc(-c4ncc5c(n4)CN(C)CC5)cc3OC)noc2cc1Nc1cc(C2CC2)n[nH]1` [Example 225, N-{6-[(3-cyclopropyl-1 H-pyrazol-5-yl)amino]-5-methoxy-1,2-benzoxazol-3-yl}-2,6-dimethoxy-4-(7-methyl-5,6,7,8-tetrahydropyrido[3,4-d]pyrimidin-2-yl)benzene-1-sulfonamide], the figures for the Ki (at KAT6A Full length enzyme (setting [2]); in experiment [1] (setting [4])) were 0.6 nM and 7 nM, respectively.
With `CCc1cc(Nc2cc3onc(NS(=O)(=O)c4c(OC)cc(-c5nccn5C)cc4OC)c3cc2OC)[nH]n1` [Example 237, N-{6-[(3-ethyl-1H-pyrazol-5-yl)amino]-5-methoxy-1,2-benzoxazol-3-yl}-2,6-dimethoxy-4-(1-methyl-1H-imidazol-2-yl)benzene-1-sulfonamide], the results for the Ki (on KAT6A Full length enzyme (setting [2]); in experiment [1] (setting [4])) were 1.4 nM and 15.4 nM, respectively.
Regarding `CCc1cc(Nc2cc3onc(NS(=O)(=O)c4c(OC)cc(-c5cn(C)cn5)cc4OC)c3cc2OC)[nH]n1` [Example 238, N-{6-[(3-ethyl-1H-pyrazol-5-yl)amino]-5-methoxy-1,2-benzoxazol-3-yl}-2,6-dimethoxy-4-(1-methyl-1H-imidazol-4-yl)benzene-1-sulfonamide], the values for the Ki (on KAT6A Full length enzyme (setting [2]); in experiment [1] (setting [4])) were 1.2 nM and 12.7 nM, respectively.
For the molecule `COc1cc2c(NS(=O)(=O)c3c(OC)cc(N4CC(F)C4)cc3OC)noc2cc1Nc1cc(C2CC2)n[nH]1` [Example 252, N-{6-[(3-cyclopropyl-1H-pyrazol-5-yl)amino]-5-methoxy-1,2-benzoxazol-3-yl}-4-(3-fluoroazetidin-1-yl)-2,6-dimethoxybenzene-1-sulfonamide], the values for the inhibition constant (Ki) (on KAT6A Full length enzyme (setting [5]); in experiment [1] (setting [7])) were 0.8 nM and 5.7 nM, respectively.
For `COc1cc2c(NS(=O)(=O)c3c(OC)cc(N4CC(OC)C4)cc3OC)noc2cc1Nc1cc(C2CC2)n[nH]1` [Example 253, N-{6-[(3-cyclopropyl-1H-pyrazol-5-yl)amino]-5-methoxy-1,2-benzoxazol-3-yl}-2,6-dimethoxy-4-(3-methoxyazetidin-1-yl)benzene-1-sulfonamide], the Ki at KAT6A Full length enzyme (setting [5]) is 0.6 nM; in experiment [1] (setting [7]), 5 nM.
Take `COc1cc2c(NS(=O)(=O)c3c(OC)cc(N4C(=O)CCC45CCC5)cc3OC)noc2cc1Nc1cc(C2CC2)n[nH]1` [Example 255, N-{6-[(3-cyclopropyl-1 H-pyrazol-5-yl)amino]-5-methoxy-1,2-benzoxazol-3-yl}-2,6-dimethoxy-4-(6-oxo-5-azaspiro[3.4]octan-5-yl)benzene-1-sulfonamide]: the Ki was 0.8 nM at KAT6A Full length enzyme (setting [5]) and 4.2 nM in experiment [1] (setting [7]).
In the case of `COc1cc2c(NS(=O)(=O)c3c(OC)cc(C(=O)N4CCC(F)(F)C4)cc3OC)noc2cc1Nc1cc(C2CC2)n[nH]1` [Example 257, N-{6-[(3-cyclopropyl-1H-pyrazol-5-yl)amino]-5-methoxy-1,2-benzoxazol-3-yl}-4-(3,3-difluoropyrrolidine-1-carbonyl)-2,6-dimethoxybenzene-1-sulfonamide], the Ki was found to be 1.6 nM on KAT6A Full length enzyme (setting [5]) and 9.5 nM in experiment [1] (setting [7]).
Turning to `COc1cc2c(NS(=O)(=O)c3c(OC)cc(C(=O)N4CC[C@@H](F)C4)cc3OC)noc2cc1Nc1cc(C2CC2)n[nH]1` [Example 258, N-{6-[(3-cyclopropyl-1H-pyrazol-5-yl)amino]-5-methoxy-1,2-benzoxazol-3-yl}-4-[(3R)-3-fluoropyrrolidine-1-carbonyl]-2,6-dimethoxybenzene-1-sulfonamide], the figures for the Ki (on KAT6A Full length enzyme (setting [5]); in experiment [1] (setting [7])) were 1 nM and 5.9 nM, respectively.
The like results for `COc1cc2c(NS(=O)(=O)c3c(OC)cc(C(=O)N4CCC[C@@H](F)C4)cc3OC)noc2cc1Nc1cc(C2CC2)n[nH]1` [Example 260, N-{6-[(3-cyclopropyl-1H-pyrazol-5-yl)amino]-5-methoxy-1,2-benzoxazol-3-yl}-4-[(3R)-3-fluoropiperidine-1-carbonyl]-2,6-dimethoxybenzene-1-sulfonamide] were, in that order, 1 nM and 6.7 nM.
For `COc1cc2c(NS(=O)(=O)c3c(OC)cc(C(=O)N4CCC[C@H](F)C4)cc3OC)noc2cc1Nc1cc(C2CC2)n[nH]1` [Example 261, N-{6-[(3-cyclopropyl-1H-pyrazol-5-yl)amino]-5-methoxy-1,2-benzoxazol-3-yl}-4-[(3S)-3-fluoropiperidine-1-carbonyl]-2,6-dimethoxybenzene-1-sulfonamide] the same measures were 1.1 nM and 6.7 nM.
Take `COc1cc2c(NS(=O)(=O)c3c(OC)cc(C(=O)N4CC(F)C4)cc3OC)noc2cc1Nc1cc(C2CC2)n[nH]1` [Example 262, N-{6-[(3-cyclopropyl-1H-pyrazol-5-yl)amino]-5-methoxy-1,2-benzoxazol-3-yl}-4-(3-fluoroazetidine-1-carbonyl)-2,6-dimethoxybenzene-1-sulfonamide]: the Ki on KAT6A Full length enzyme (setting [5]) was 1 nM; in experiment [1] (setting [7]), 8.1 nM.
`COc1cc2c(NS(=O)(=O)c3c(OC)cc(C(=O)N4CCC(F)(F)CC4)cc3OC)noc2cc1Nc1cc(C2CC2)n[nH]1` [Example 263, N-{6-[(3-cyclopropyl-1H-pyrazol-5-yl)amino]-5-methoxy-1,2-benzoxazol-3-yl}-4-(4,4-difluoropiperidine-1-carbonyl)-2,6-dimethoxybenzene-1-sulfonamide]: the Ki on KAT6A Full length enzyme (setting [5]) worked out at 1.4 nM; in experiment [1] (setting [7]), 9.8 nM.
The like results for `COc1cc2c(NS(=O)(=O)c3c(OC)cc(C(=O)N4CC(F)(F)C4)cc3OC)noc2cc1Nc1cc(C2CC2)n[nH]1` [Example 264, N-{6-[(3-cyclopropyl-1H-pyrazol-5-yl)amino]-5-methoxy-1,2-benzoxazol-3-yl}-4-(3,3-difluoroazetidine-1-carbonyl)-2,6-dimethoxybenzene-1-sulfonamide] were, in that order, 2.3 nM and 17.6 nM.
In the case of `COc1cc2c(NS(=O)(=O)c3c(OC)cc(C4CCO4)cc3OC)noc2cc1Nc1cc(C2CC2)n[nH]1` (centres unmarked) [Example 276, N-{6-[(3-cyclopropyl-1H-pyrazol-5-yl)amino]-5-methoxy-1,2-benzoxazol-3-yl}-2,6-dimethoxy-4-(oxetan-2-yl)benzene-1-sulfonamide], the Ki was 1.3 nM on KAT6A Full length enzyme (setting [5]) and 16.8 nM in experiment [1] (setting [7]).
As to “N-{6-[(3-cyclopropyl-1 H-pyrazol-5-yl)amino]-5-methoxy-1,2-benzoxazol-3-yl}-4-(4,4-difluoro-1-methylpiperidin-3-yl)-2,6-dimethoxybenzene-1-sulfonamide [Example 176]”, the Ki came to 1 nM at KAT6A Full length enzyme (setting [2]) and 2.7 nM in experiment [1] (setting [4]).
